Laboratory results reported in US20260242359A1, “IRHOM2 INHIBITORS AND USES THEREOF” (NEW YORK SOCIETY FOR THE RELIEF OF THE RUPTURED AND …, priority 2023, published 2026).

Test system: PMA-induced release of endogenous TGFα from human PC3 prostate cancer cells
Assay: Example 17: ELISA-based TGFα release assay, PMA-induced, PC3 prostate cancer cells
Format: cell-based
Conditions: 10 μM final concentration, PMA 25 ng/ml, delta Buffer stimulated vs unstimulated = 100% inhibition; for inhibition at 10 µM: Homo sapiens
Procedure: In the following study, ELISA-based TGFα release assays were performed to analyze the inhibitory effects of Compounds 1, 2, 3, 4, 5, and 7 on PMA-induced release of endogenous TGFα, from human PC3 prostate cancer cells. The ELISA-based TGFα release assay that was used in this example is described below.
In brief, on day 1, Nunc black MaxiSorp® 96-well plates (Thermo Fisher Scientific, USA) were coated overnight with 100 μl per well of goat anti-human TGFα capture antibody (provided as part of the DuoSet ELISA kit) at 0.4 μg/ml TBS at 4° C.
75,000 PC3 (European Collection of Authenticated Cell Cultures, UK) cells in 100 μl of normal growth medium were seeded in each well of F-bottom 96-well cell culture plates (Corning, USA) and incubated at 37° C., 5% CO2 overnight. On day 2, the capture antibody solution was removed and MaxiSorp® plates were blocked with 300 μl per well of TBS, 1% BSA at room temperature for 5 hours. Meanwhile, cells were washed twice with PBS and pre-incubated in 80 μl of OptiMEM medium with 20 μl per well of OptiMEM medium supplemented with Batimastat (BB94, Abcam, UK) at 50 μM as positive control (for a final concentration of 10 μM in the resulting 100 μl sample volume), compounds of the invention at 50 μM (for a final concentration of 10 μM in the resulting 100 μl sample volume) and in case of Buffer stimulated and unstimulated controls with DMSO (Carl Roth, Germany) at 50 μM (for a final concentration of 10 μM in the resulting 100 μl sample volume) at 37° C., 5% CO2 for 30 minutes. Subsequently, cells (except those for unstimulated controls) were stimulated with 20 μl per well of PMA (Sigma-Aldrich, USA) at 150 ng/ml in OptiMEM for a final concentration of 25 ng/ml at 37° C., 5% CO2 for 2 hours. In parallel, blocking buffer was removed from the MaxiSorp® plates and plates were washed 4 times with 350 μl TBS-T (Carl Roth, Germany) per well on a 96-head plate washer (Tecan Group, Switzerland). To avoid drying-up, 20 μl TBS were added to each well of the MaxiSorp® plates immediately, followed by the transfer of 80 μl cell-free supernatant per sample. Additionally, 100 μl recombinant human TGFα protein (provided as part of the DuoSet ELISA kit) diluted in TBS at defined concentrations were added to the plate as standard references. Thereafter, 100 μl biotinylated goat anti-human TGFα detection antibody (provided as part of the DuoSet ELISA kit) at 37.5 ng/ml in TBS were added per well and, protected from direct light, plates were incubated at room temperature for 2 hours. After 4 times washing with 350 μl TBS-T (Carl Roth, Germany) per well on a 96-head plate washer (Tecan Group, Switzerland) and careful removal of all buffer traces after the fourth cycle, 100 μl streptavidin-AP (R&D Systems, USA) diluted 1:10,000 in TBS were added to each well and, again protected from direct light, plates were incubated at room temperature for 30 minutes. Following another round of 4 times washing with 350 μl TBS-T (Carl Roth, Germany) per well on a 96-head plate washer (Tecan Group, Switzerland) and careful removal of all buffer traces after the fourth cycle, 100 μl AttoPhos substrate solution (Promega, USA) per well was added for incubation in the dark at room temperature for 1 hour. Using an infinite M1000 (Tecan Group, Switzerland) microplate reader, the fluorescence of each well was collected at an excitation wavelength of 435 nm and an emission wavelength of 555 nm.
The delta between Buffer stimulated and Buffer unstimulated was defined 100% inhibition.

Structure (SMILES)	inhibition of PMA-induced release of TGFα from PC3 cells (2 hours) [%]	inhibition at 10 µM (PC-3, 2 h) [%]	inhibition at 10 µM (PC-3, 2 hours) [%]
CNC(=O)[C@H](Cc1ccccc1)NC(=O)[C@H](CC(C)C)[C@H](CSc1cccs1)C(=O)NO [Batimastat, reference compound]	102.5	104	–
CCC(=O)NCCc1c(/C=C2/C(=O)NC(=O)N(c3ccc(C)cc3C)C2=O)[nH]c2ccccc12 [Compound 1]	–	–	25.5
CCOC(=O)c1ccc(Nc2nc3nonc3n3nnnc23)cc1 [Compound 2]	–	9.1	–
O=C(c1c(Cl)cccc1Cl)N1CCC(Cc2ccc(F)cc2)CC1 [Compound 3]	–	12.5	–
Cc1c(C(=O)NCc2cccs2)sc(=O)n1Cc1ccccc1 [Compound 4]	–	14.1	–
Cc1c(C(=O)NCc2cccs2)sc(=O)n1Cc1ccccc1F [Compound 5]	–	11.3	–
Cc1c(C(=O)NCc2ccco2)sc(=O)n1Cc1ccccc1F [Compound 7]	–	27.3	–
